Laboratory results as given in publication PMC9186362, “Design and biological evaluation of substituted 5,7-dihydro-6H-indolo[2,3-c]quinolin-6-one as novel selective Haspin inhibitors” (Journal of Enzyme Inhibition and Medicinal Chemistry, 2022).

Experiments:
HsCdk2/Cyc A = HsCdk2/Cyc A (Homo sapiens, UniProt P24941); experiment: ADP-Glo kinase assay; type: biochemical, Homo sapiens (Hs); conditions: mean n = 2, % of maximum activity of DMSO control, read-out: % Residual activity at 1 μM CDK2
Description: (§1) Kinase activities were determined using the ADP-Glo methodology (ADP-Glo Kinase Assay; Promega) according to the assay described by Nguyen et al.[32] except for MmCLK1. The later was assayed in the following buffer: 10 mM MgCl2, 1 mM EGTA, 1 mM DTT, 25 mM Tris-HCl pH 7.5, 50 µg/ml heparin, 0.15 mg/ml BSA, with 0.027 µg/µl of the following peptide: GRSRSRSRSRSR as substrate.

HsCdk5/p25 = HsCdk5/p25 (Homo sapiens, UniProt Q00535); experiment: ADP-Glo kinase assay; type: biochemical, Homo sapiens (Hs); conditions: mean n = 2, % of maximum activity of DMSO control, read-out: % Residual activity at 1 μM CDK5
Description: as §1

HsCdk9/Cyc E = HsCdk9/Cyc E (Homo sapiens, UniProt P50750); experiment: ADP-Glo kinase assay; type: biochemical, Homo sapiens (Hs); conditions: mean n = 2, % of maximum activity of DMSO control, read-out: % Residual activity at 1 μM CDK9
Description: as §1

HsGSK3β = HsGSK3β (Homo sapiens, UniProt P49841); experiment: ADP-Glo kinase assay; type: biochemical, Homo sapiens (Hs); conditions: mean n = 2, % of maximum activity of DMSO control, read-out: % Residual activity at 1 μM GSK3β
Description: as §1

HsHaspin = target: T1, HsHaspin (Homo sapiens, UniProt Q8TF76); experiment: ADP-Glo kinase assay; type: biochemical, Homo sapiens (Hs); conditions: for remaining activity at 1 µM: mean n = 2, % of maximum activity of DMSO control, read-out: % Residual activity at 1 μM Haspin; for IC50: dose-response curve, each point in duplicate, read-out: Kinase inhibition (IC50) Haspin
T1 sequence (Q8TF76 1-798): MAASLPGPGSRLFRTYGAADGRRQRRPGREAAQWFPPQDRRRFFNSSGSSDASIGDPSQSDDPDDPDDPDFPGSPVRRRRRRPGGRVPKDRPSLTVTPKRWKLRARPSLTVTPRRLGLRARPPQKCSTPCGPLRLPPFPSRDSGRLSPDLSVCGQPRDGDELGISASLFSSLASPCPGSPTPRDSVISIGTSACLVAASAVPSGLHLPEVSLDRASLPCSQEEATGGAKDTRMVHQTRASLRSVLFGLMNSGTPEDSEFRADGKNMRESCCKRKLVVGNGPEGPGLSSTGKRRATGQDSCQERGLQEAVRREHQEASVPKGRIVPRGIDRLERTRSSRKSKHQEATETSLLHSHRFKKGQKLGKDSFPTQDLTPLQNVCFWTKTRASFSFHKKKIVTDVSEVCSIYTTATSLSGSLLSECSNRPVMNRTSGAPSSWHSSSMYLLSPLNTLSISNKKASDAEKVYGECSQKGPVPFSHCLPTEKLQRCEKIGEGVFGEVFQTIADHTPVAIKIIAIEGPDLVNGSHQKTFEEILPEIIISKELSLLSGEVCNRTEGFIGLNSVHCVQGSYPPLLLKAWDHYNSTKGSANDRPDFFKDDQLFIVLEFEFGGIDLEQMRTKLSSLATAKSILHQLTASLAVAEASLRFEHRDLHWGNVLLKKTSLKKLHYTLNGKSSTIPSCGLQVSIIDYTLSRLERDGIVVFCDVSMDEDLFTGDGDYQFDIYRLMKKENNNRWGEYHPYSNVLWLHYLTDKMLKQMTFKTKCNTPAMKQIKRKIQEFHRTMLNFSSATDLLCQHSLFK
Description: as §1

HsPIM1 = HsPIM1 (Homo sapiens, UniProt P11309); experiment: ADP-Glo kinase assay; type: biochemical, Homo sapiens (Hs); conditions: mean n = 2, % of maximum activity of DMSO control, read-out: % Residual activity at 1 μM PIM1
Description: as §1

MmCLK1 = MmCLK1 (Mus musculus, UniProt P22518); experiment: ADP-Glo kinase assay; type: biochemical, Mus musculus (Mm); conditions: for remaining activity at 1 µM: mean n = 2, % of maximum activity of DMSO control, read-out: % Residual activity at 1 μM CLK1; for Selectivity index CLK1/Haspin: IC50 CLK1/IC50 Haspin; for IC50: dose-response curve, each point in duplicate, read-out: Kinase inhibition (IC50) CLK1
Description: as §1

RnDYRK1A = RnDYRK1A (Rattus norvegicus, UniProt Q63470); experiment: ADP-Glo kinase assay; type: biochemical, Rattus norvegicus (Rn); conditions: for Selectivity index DYRK/Haspin: IC50 DYRK1A/IC50 Haspin; for IC50: dose-response curve, each point in duplicate, read-out: Kinase inhibition (IC50) DYRK1A; for remaining activity: mean n = 2, % of maximum activity of DMSO control, read-out: % Residual activity at 1 μM DYRK1A
Description: as §1

RPE1 cell line = experiment: Cell viability MTS assay, dose-response; type: cell-based; conditions: Homo sapiens, RPE-1; 48 h, MTS assay in triplicate, doses up to 50 µM
Description: (§2) HCT116 cells were cultured in McCoy’s medium. SH-SY5Y, MDA-MB231 and U-2 OS cells were cultured in Dulbecco's modified Eagle's medium (DMEM) and hTERT RPE-1 cells in DMEM:F12 medium. All media were supplemented with 10% foetal calf serum and cells were cultured at 37 °C in a 5% CO2 humidified atmosphere.
(§3) Cell viability was then assessed using the CellTiter96 AQueous cell proliferation assay from Promega according to the manufacturer’s instructions. Each experiment was done in triplicate and EC50 were determined from the dose-response curves according to the signal given by the control (0.1% DMSO) set at 100% viability using Prism GraphPad software.

U-2 OS cell line = experiment: Cell viability MTS assay, dose-response; type: cell-based; conditions: Homo sapiens, U2OS; 48 h, MTS assay in triplicate, doses up to 50 µM
Description: as §2, §3

[1] = system: U-2 OS, HCT116, MDA-MB231, SH-SY5Y and RPE-1 cell lines; experiment: Cell viability primary screen at 25 μM; type: cell-based, human; conditions: 48 h; for Effect on cell viability, primary screen: all tested cell lines
Description: as §2, §3

Chain of HsCdk9/Cyc E (P50750 whole entry): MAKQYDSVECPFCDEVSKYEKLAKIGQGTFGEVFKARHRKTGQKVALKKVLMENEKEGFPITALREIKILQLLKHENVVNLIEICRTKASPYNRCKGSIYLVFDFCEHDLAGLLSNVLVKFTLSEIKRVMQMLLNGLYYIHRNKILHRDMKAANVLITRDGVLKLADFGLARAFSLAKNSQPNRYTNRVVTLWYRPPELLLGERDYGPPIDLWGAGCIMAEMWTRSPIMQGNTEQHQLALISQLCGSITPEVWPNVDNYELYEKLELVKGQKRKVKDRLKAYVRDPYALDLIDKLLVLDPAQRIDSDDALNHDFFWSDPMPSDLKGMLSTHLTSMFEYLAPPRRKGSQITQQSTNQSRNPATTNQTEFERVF
Chain of HsCdk9/Cyc E (O60563 whole entry partner): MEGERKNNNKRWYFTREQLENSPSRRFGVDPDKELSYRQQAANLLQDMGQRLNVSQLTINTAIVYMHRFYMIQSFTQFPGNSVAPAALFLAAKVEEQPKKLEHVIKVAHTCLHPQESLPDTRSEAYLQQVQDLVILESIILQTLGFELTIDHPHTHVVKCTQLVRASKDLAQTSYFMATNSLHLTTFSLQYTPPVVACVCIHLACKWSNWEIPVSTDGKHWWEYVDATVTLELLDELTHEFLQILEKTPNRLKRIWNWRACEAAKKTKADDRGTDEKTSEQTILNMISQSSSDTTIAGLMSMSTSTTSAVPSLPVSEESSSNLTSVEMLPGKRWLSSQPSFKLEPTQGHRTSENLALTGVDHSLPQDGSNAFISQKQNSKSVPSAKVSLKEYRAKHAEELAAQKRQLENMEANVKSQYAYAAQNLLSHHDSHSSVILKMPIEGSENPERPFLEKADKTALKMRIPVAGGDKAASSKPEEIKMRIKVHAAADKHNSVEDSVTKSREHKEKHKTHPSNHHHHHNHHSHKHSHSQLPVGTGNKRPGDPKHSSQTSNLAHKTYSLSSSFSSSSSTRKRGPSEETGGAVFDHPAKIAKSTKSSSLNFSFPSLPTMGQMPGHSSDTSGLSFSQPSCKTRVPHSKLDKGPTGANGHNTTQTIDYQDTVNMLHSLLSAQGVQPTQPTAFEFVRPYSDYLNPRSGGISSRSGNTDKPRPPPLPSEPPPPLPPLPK
Chain of HsPIM1 (P11309 whole entry): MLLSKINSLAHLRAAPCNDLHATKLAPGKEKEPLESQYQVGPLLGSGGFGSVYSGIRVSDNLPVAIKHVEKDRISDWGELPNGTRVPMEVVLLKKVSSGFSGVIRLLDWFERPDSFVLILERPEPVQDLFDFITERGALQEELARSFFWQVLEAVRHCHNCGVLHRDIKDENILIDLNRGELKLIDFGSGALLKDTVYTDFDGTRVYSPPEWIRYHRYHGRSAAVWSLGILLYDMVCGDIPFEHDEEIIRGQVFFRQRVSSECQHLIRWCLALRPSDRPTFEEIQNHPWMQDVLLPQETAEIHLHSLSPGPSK
Chain of HsGSK3β (P49841 whole entry): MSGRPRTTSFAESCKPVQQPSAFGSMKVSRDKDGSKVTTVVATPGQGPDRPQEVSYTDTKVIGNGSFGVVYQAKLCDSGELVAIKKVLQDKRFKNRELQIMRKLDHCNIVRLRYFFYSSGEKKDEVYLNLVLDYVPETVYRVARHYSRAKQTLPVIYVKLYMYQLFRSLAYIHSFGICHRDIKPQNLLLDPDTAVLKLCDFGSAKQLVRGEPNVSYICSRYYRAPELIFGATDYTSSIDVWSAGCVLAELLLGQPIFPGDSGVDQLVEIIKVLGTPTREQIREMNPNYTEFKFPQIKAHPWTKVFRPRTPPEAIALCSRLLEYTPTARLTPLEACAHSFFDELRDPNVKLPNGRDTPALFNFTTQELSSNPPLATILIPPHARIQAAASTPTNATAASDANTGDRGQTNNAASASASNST
Chain of HsCdk5/p25 (Q00535 whole entry): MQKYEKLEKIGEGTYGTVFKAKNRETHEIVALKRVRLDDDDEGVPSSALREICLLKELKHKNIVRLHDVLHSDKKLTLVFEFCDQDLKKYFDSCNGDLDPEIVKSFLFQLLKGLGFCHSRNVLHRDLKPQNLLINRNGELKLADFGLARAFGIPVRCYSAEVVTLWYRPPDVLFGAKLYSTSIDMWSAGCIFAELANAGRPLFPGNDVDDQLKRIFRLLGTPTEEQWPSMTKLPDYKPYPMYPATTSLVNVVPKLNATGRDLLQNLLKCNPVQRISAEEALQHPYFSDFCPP
Chain of HsCdk5/p25 (Q15078 99-307 partner limits assumed): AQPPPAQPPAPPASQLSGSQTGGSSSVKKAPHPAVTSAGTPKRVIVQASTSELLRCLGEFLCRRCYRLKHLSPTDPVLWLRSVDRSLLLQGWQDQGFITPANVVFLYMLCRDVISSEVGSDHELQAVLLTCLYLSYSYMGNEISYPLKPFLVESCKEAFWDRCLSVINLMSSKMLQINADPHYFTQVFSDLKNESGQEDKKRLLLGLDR
Chain of MmCLK1 (P22518 whole entry): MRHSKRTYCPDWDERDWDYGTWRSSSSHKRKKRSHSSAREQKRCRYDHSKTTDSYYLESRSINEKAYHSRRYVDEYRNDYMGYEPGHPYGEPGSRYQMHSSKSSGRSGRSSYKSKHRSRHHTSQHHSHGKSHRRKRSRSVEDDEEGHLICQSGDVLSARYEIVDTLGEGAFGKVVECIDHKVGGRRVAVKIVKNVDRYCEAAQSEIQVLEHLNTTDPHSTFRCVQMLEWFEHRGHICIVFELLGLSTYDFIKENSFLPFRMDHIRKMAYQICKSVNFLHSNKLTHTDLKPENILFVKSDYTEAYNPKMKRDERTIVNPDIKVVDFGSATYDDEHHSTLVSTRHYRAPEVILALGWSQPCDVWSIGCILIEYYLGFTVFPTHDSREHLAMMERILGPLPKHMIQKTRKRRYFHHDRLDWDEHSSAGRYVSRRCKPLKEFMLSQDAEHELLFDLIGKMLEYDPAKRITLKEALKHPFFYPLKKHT

SMILES | remaining activity at 1 µM (HsCdk2/Cyc A) | remaining activity at 1 µM (HsCdk5/p25) | remaining activity at 1 µM (HsCdk9/Cyc E) | remaining activity at 1 µM (HsGSK3β) | remaining activity at 1 µM (HsHaspin) | IC50 (HsHaspin) | remaining activity at 1 µM (HsPIM1) | remaining activity at 1 µM (MmCLK1) | Selectivity index CLK1/Haspin (MmCLK1) | IC50 (MmCLK1) | Selectivity index DYRK/Haspin (RnDYRK1A) | IC50 (RnDYRK1A) | remaining activity (RnDYRK1A) | melting point | EC50 (RPE1 cell line) | EC50 (U-2 OS cell line) | Effect on cell viability, primary screen [1] | Reduction of cell viability compared to the DMSO control [1]
COc1ccc2[nH]c(=O)c3[nH]c4ccccc4c3c2c1 [Compound 46, 2-Methoxy-5,7-dihydro-6H-indolo[2,3-c]quinolin-6-one] | 80% | 78% | 62% | 86% | 6% | 7 nM | 32% | 13% | 7 | 51 nM | 10 | 68 nM | 18% | > 250 °C | > 25000 nM | > 25000 nM | little to no effect | –
COc1ccc2[nH]c3c(=O)[nH]c4ccccc4c3c2c1 [Compound 49, 10-Methoxy-5,7-dihydro-6H-indolo[2,3-c]quinolin-6-one] | 73% | 77% | 40% | 39% | 2% | 1 nM | 41% | 5% | – | 13 nM | – | 15 nM | 7% | 232 to 235 °C | > 25000 nM | > 25000 nM | little to no effect | –
COc1ccc2c(c1)[nH]c(=O)c1[nH]c3ccc(OC)cc3c12 [Compound 50, 3,10-Dimethoxy-5,7-dihydro-6H-indolo[2,3-c]quinolin-6-one] | 77% | 81% | 51% | 44% | 3% | 7 nM | 19% | 10% | 13 | 88 nM | 28 | 196 nM | 5% | 192 to 195 °C | 20800 nM | 4300 nM | – | ≥ 75%
COc1ccc2[nH]c(=O)c3[nH]c4ccc(OC)cc4c3c2c1 [Compound 51, 2,10-Dimethoxy-5,7-dihydro-6H-indolo[2,3-c]quinolin-6-one] | 62% | 70% | 33% | 29% | 1% | 4 nM | 36% | 5% | 3 | 10 nM | 10 | 41 nM | 14% | 190 to 192 °C | > 25000 nM | 12600 nM | little to no effect | –

Further compounds by falling IC50 (HsHaspin), results first:

remaining activity at 1 µM (HsCdk2/Cyc A) | remaining activity at 1 µM (HsCdk5/p25) | remaining activity at 1 µM (HsCdk9/Cyc E) | remaining activity at 1 µM (HsGSK3β) | remaining activity at 1 µM (HsHaspin) | IC50 (HsHaspin) | remaining activity at 1 µM (HsPIM1) | remaining activity at 1 µM (MmCLK1) | Selectivity index CLK1/Haspin (MmCLK1) | IC50 (MmCLK1) | Selectivity index DYRK/Haspin (RnDYRK1A) | IC50 (RnDYRK1A) | remaining activity (RnDYRK1A) | melting point | SMILES | EC50 (RPE1 cell line) | EC50 (U-2 OS cell line) | Effect on cell viability, primary screen [1] | Reduction of cell viability compared to the DMSO control [1]
72% | 79% | 37% | 39% | 2% | 14 nM | 65% | 3% | 15 | 213 nM | 16 | 226 nM | 7% | > 250 °C | COc1ccc2[nH]c3c(=O)[nH]c4ccc(N)cc4c3c2c1 [Compound 56, 2-Amino-10-methoxy-5,7-dihydro-6H-indolo[2,3-c]quinolin-6-one] | > 25000 nM | > 25000 nM | little to no effect | –
84% | 87% | 49% | 100% | 1% | 6 nM | 63% | 4% | 3 | 17 nM | 3 | 19 nM | 12% | 235 to 238 °C | O=c1[nH]c2ccc(O)cc2c2c1[nH]c1ccccc12 [Compound 48, 2-Hydroxy-5,7-dihydro-6H-indolo[2,3-c]quinolin-6-one] | 7300 nM | 7000 nM | – | ≥ 75%
57% | 91% | 41% | 71% | 0% | 5 nM | 38% | 2% | 16 | 78 nM | 21 | 104 nM | 9% | 240 to 243 °C | O=c1[nH]c2ccc(O)cc2c2c1[nH]c1ccc(F)cc12 [Compound 61, 10-Fluoro-2-Hydroxy-5,7-dihydro-6H-indolo [2,3-c]quinolin-6-one] | 19100 nM | 8700 nM | – | ≥ 75%
35% | 59% | 18% | 48% | 0% | 4 nM | 9% | 11% | 21 | 82 nM | 24 | 97 nM | 2% | 227 to 230 °C | COc1ccc2[nH]c3c(=O)[nH]c4cc(O)ccc4c3c2c1 [Compound 54, 3-Hydroxy-10-methoxy-5,7-dihydro-6H-indolo[2,3-c]quinolin-6-one] | > 25000 nM | > 25000 nM | little to no effect | –
